Reference: US20180319865A1, “Identification of Novel Small Molecule Beta2 Integrin Agonists” (Rush University Medical Center, priority 2016, published 2018)
pEC50: −log10 of the molar value.

Target: T1, mutant integrin CD11bE320A/CD18 (Homo sapiens, UniProt P11215, E336A)
T1 construct: expressed in transfected cells; host or cells: K562 (ATCC)
Assay: HTS cell adhesion assay, K562 E320A cells on immobilized fibrinogen
Assay type: cell-based
Conditions: Table 3, adhesion to fibrinogen, five point dose-response
Description: K562 cells stably expressing CD11c/CD18 (K562 CD11c/CD18) were generated similarly. […] K562 cells stably transfected with mutant integrin CD11bE320A/CD18 (K562 E320A) were generated according to literature protocols. All cell lines were maintained in Iscove's Modified Dulbecco's Medium (IMDM) supplemented with 10% heat-inactivated fetal bovine serum, 50 IU/mL penicillin and streptomycin and 0.5 mg/mL G418.
Cell adhesion assays with immobilized ligands were performed using the general protocol previously described and as illustrated in FIG. 1 [33]. Assays with all different K562 cell lines (K562, K562 CD11b/CD18, K562 CD11c/CD18 and K562 E320A) were performed in an identical fashion. Briefly, 384-well microplates (Corning 3700) were coated with 15 μg/mL fibrinogen (Fg) ligand in PBS^++ overnight at 4° C. At the same time, anti-CD18 (IB4) mAb was also coated. Subsequently, the coated wells were washed with 1% nonfat milk in TBS at room temperature for 1 hour. Next, the wells were washed 3 times with TBS, and the coated microplates were used in the HTS assays.
K562 CD11b/CD18, K562 CD11bE320A/CD18 and K562 CD11c/CD18 cells were washed with TBS, and cells were transferred to the Fg-coated wells of microplates in the assay buffer (Ca^2+ and Mg^2+ for physiological condition, Mn^2+ as the Positive control). A 1 μL aliquot of the compounds were transferred to each washed well with multichannel pipet from the 384-well plates.
The assay plates were incubated at 37° C. in the presence of small-molecule compounds for 30 min. To dislodge the non-adherent cell, the assay plates were gently inverted and kept in inverted position for 20 min at room temperature.
The cells were fixed with 37% formaldehyde in a small volume and the plates were kept inverted for 1 h. Upon the fixation, the solutions in the well were discarded. Next, the cells were fluorescently labeled with DAPI (0.5 μM final in TBS with 0.1% Triton X-100) and the quantitated with “Opera High Content Screening System” (Perkin Elmer).
Cell-adhesion under positive and negative control conditions was used to define the activity scale; signal corresponding to the number of non-small molecule treated cells adherent in activating buffer condition (in the presence of Mn^2+ ions as agonist, PC) was considered maximum (100% binding) and the signal corresponding to the number of non-small molecule treated cells adherent in basal buffer condition (in the presence of 1 mM each of Ca^2+ and Mg^2+, NC) was considered minimum (0% binding).

T1 sequence (P11215 17-1152 E336A): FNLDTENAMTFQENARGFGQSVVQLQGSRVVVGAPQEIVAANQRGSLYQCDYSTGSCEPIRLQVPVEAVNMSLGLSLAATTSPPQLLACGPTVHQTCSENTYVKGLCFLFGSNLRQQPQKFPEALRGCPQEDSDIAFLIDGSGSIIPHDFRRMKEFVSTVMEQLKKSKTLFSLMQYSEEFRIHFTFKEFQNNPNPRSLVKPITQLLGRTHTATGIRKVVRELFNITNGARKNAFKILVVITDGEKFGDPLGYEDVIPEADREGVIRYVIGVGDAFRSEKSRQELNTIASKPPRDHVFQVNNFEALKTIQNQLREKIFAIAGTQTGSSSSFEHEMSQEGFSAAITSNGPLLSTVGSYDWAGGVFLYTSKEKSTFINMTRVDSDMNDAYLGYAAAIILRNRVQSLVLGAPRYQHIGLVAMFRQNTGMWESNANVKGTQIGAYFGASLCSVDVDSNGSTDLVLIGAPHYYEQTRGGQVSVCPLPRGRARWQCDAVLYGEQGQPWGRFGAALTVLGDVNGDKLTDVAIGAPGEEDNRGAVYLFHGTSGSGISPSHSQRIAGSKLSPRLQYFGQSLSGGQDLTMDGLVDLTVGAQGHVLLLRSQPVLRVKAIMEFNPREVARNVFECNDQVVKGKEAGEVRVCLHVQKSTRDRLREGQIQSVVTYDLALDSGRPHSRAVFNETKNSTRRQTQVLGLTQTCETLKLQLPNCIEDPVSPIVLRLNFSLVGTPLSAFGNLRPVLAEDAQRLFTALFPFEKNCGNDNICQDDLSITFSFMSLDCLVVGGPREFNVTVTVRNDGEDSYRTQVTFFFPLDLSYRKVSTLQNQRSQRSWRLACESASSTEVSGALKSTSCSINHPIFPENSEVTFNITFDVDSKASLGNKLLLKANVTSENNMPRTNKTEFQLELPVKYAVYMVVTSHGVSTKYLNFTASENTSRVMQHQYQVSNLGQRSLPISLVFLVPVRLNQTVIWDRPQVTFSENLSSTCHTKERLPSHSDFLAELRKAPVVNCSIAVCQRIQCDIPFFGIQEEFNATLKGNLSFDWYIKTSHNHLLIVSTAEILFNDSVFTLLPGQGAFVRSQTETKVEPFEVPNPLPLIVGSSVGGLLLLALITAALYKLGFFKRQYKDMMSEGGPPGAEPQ
T1 sequence (P05107 23-769 partner): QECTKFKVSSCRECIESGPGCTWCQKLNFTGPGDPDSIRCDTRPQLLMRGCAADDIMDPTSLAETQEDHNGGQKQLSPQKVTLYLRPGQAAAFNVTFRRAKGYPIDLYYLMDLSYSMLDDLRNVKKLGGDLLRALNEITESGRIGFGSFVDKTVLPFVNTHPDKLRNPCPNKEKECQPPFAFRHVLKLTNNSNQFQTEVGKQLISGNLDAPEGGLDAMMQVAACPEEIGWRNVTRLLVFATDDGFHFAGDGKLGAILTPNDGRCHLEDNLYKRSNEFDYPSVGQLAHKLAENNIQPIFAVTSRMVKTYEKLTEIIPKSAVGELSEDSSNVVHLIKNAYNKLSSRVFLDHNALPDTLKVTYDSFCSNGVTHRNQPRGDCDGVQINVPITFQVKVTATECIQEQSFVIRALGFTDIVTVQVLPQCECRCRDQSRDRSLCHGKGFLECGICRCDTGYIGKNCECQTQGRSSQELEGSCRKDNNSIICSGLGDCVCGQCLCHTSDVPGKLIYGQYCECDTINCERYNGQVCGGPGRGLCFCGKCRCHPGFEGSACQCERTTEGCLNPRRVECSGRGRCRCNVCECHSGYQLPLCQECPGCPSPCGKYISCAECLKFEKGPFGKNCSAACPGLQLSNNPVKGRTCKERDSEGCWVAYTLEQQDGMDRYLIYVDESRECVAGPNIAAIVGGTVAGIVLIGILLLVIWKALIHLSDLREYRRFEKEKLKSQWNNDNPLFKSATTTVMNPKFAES

Cc1[nH]nc2ncc(C(=O)c3cc(Cl)cc(Cl)c3O)cc12 [Compound 2421294]
pEC50: 5.01

CCOC(=O)C(Cc1ccccc1)C(=O)Nc1ccc(NC(=O)C(Cc2ccccc2)C(=O)OCC)cc1 (stereo not drawn) [Compound 2836867]
pEC50: 3.92

Cc1ccccc1-c1ccc(Nc2ccc(N3CCOCC3)cc2)nn1 [Compound 646977]
pEC50: 5.00

O=[N+]([O-])c1ccc(-c2ccc(/C=N/c3c(-c4ccco4)nc4ccccn34)o2)c(Cl)c1 [Compound 9617832]
pEC50: 4.93

Cc1cc(/C=C2\C(=O)NC(=O)N(c3ccc(Cl)cc3)C2=O)c(C)n1-c1sc2c(c1C#N)CCCC2 [Compound 1418314]
pEC50: 5.02

CCCCn1c(=O)[nH]c(=O)c2c1nc(-c1ccc(-c3ccccc3Br)o1)n2CCOC [Compound 3908086]
pEC50: 4.91

CCOc1ccc(-c2nnc3ccc(SCC(=O)Nc4nc5ccc(C)cc5s4)nn23)cc1 [Compound 12005911]
pEC50: 4.92

O=C(CNC(=O)c1cc2c(s1)CCC2)Nc1ccccc1Br [Compound 2537029]
pEC50: 2.06

CC(=O)c1cccc(NC(=O)Nc2cc3sccc3n2C)c1 [Compound 5307308]
pEC50: 4.73

O=C(Cn1c2ccccc2c(=O)c2cc([N+](=O)[O-])ccc21)Nc1ccccc1Cl [Compound 15944880]
pEC50: 4.99

CC(C)c1nnc(NC(=O)c2c(O)c3cccc4c3n(c2=O)CCC4)s1 [Compound 54680928]
pEC50: 4.79

COc1ccc2c(c1)c1nc3ccccc3nc1n2Cc1ccc(OC)c(OC)c1 [Compound 2023256]
pEC50: 4.58

Cc1cc(C)cc(-n2c3nc4ccccc4nc3c3c(=O)n(Cc4ccco4)cnc32)c1 [Compound 660761]
pEC50: 5.06

COc1ccc2nc(O)c(CN(C3CCCCC3)C(c3nnnn3Cc3ccco3)C(C)C)cc2c1 (stereo not drawn) [Compound 650199]
pEC50: 4.87

CCN(CC)c1ccc(C(=O)OCC(=O)Nc2cc3oc4ccccc4c3cc2OC)cc1 [Compound 2078838]
pEC50: 4.14

CCC(C)N1C(=O)/C(=C/c2ccc3c(c2)CCN3CCCCl)C(=O)NC1=S (stereo not drawn) [Compound 6513263]
pEC50: 4.86

COc1ccccc1-c1cc(C(=O)Nc2sc3c(c2C#N)CCC(C)C3)c2ccccc2n1 (stereo not drawn) [Compound 3272728]
pEC50: 4.97

CCOC(=O)c1sc(NC(=O)CSc2nnnn2-c2ccccc2)c(C(=O)OCC)c1C [Compound 2132989]
pEC50: 4.74

CCCC(=O)Nc1ccc(-c2cnc(-c3ccc(NC(=O)CCC)cc3)nc2)cc1 [Compound 1272696]
EC50 E320A: Infinite

O=c1nc2s/c(=C\c3ccco3)c(=O)n2nc1Cc1ccc(F)cc1 [Compound 1844411]
pEC50: 5.15

N#Cc1ccsc1NC(=O)CSc1ncnc2ccccc12 [Compound 2369720]
pEC50: 4.95

CCn1c(COc2ccc3c(c2)CCCC3)nnc1SCC(=O)Nc1ccc(C(=O)OC)cc1 [Compound 2958500]
pEC50: 5.05

COc1ccccc1N1CSC2=C(C#N)C(c3ccc(SC)cc3)CC(=O)N2C1 (stereo not drawn) [Compound 3160888]
pEC50: 4.94

O=C(CSc1nnc2c3ccccc3c3ccccc3c2n1)Nc1ccccc1F [Compound 6402388]
pEC50: 4.95

O=C(Cc1coc2cc3c(cc12)CCC3)OCc1cc(=O)n2c(n1)sc1ccccc12 [Compound 3000165]
pEC50: 5.04

CC(=O)NC(=S)Nc1ccc(-c2nc3ccc(C)cc3s2)cc1 [Compound 1226649]
pEC50: 5.07

O=C(CN1CCc2ccccc21)Nc1ccc2c(c1)OCO2 [Compound 2064203]
pEC50: 5.05

Cc1cc(C)c(NC(=O)Cn2c(=O)n(Cc3ccco3)c(=O)c3ccccc32)c(C)c1 [Compound 3237376]
pEC50: 4.91

O=C(CSc1nc2sc3c(c2c(=O)n1-c1ccccc1)CCCC3)NCc1ccco1 [Compound 1322134]
pEC50: 4.92

COc1ccc(/C=C2/C(=O)N(c3nc4ccccc4s3)N=C2CSc2ccc(Cl)cc2)cc1 [Compound 5727347]
pEC50: 4.99

CCOc1cc(/C=C2/N=C(c3ccc(C(C)(C)C)cc3)OC2=O)cc(Cl)c1OS(C)(=O)=O [Compound 2182821]
pEC50: 5.07

CCOC(=O)C1CCN(S(=O)(=O)c2ccc(-c3nc4ccccc4s3)s2)CC1 [Compound 3241379]
pEC50: 4.90

COC(=O)c1c(NC(=O)CN2CCC3(O)CCCCC3C2c2ccc(OC)cc2OC)sc(C)c1C (stereo not drawn) [Compound 4971819]
pEC50: 4.22

O=C(Nc1ccc2nn(-c3ccccc3)nc2c1)c1ccc2c(c1)OCO2 [Compound 2208079]
pEC50: 3.25

CC1CCc2c(sc(NC(=O)c3ccc(Cn4cc(Br)cn4)o3)c2C(N)=O)C1 (stereo not drawn) [Compound 2941732]
pEC50: 4.45

Cc1ccc(-n2c(=O)c(C#N)cc3c(=O)n4cccc(C)c4nc32)cc1 [Compound 9550569]
pEC50: 5.09

C=CCOC(=O)C(C#N)c1nc2ccccc2nc1N1CCN(Cc2ccc3c(c2)OCO3)CC1 (stereo not drawn) [Compound 660507]
pEC50: 4.73

O=C(NCC1OCCc2ccccc21)c1ccc(NC(=O)c2ccc(Cl)cc2)cc1 (stereo not drawn) [Compound 5212443]
pEC50: 4.89

O=C(/C=C/c1ccc(Cl)cc1)NC(=S)Nc1ccc(N2CCOCC2)c(Cl)c1 [Compound 1345254]
pEC50: 5.12

COc1ccc(-n2c(C)cc(C(=O)COC(=O)c3cc(NC(=O)c4cccs4)c(OC)c(OC)c3)c2C)cc1 [Compound 2108710]
pEC50: 4.20

O=C(/C=C/c1ccco1)c1ccc(NC(=O)C23CC4CC(CC(C4)C2)C3)cc1 [Compound 7424594]
pEC50: 4.99

COc1ccc(-c2nn(C)c(=O)c3ccccc23)cc1NC(=O)Cn1nc(C)c2ccccc2c1=O [Compound 1314910]
pEC50: 4.93

N#Cc1cccc(NC(=O)CSc2ccc3c4c(cccc24)C(=O)c2ccccc2-3)c1 [Compound 4835204]
EC50 E320A: Infinite

Cc1ccc(NC(=O)COc2ccc(/C=C3/SC(=Nc4ccccc4)N(Cc4cccnc4)C3=O)cc2)cc1 [Compound 11840403]
pEC50: 4.87

COc1ccc(N=c2oc3ccc(OC)cc3cc2-c2nc3ccccc3[nH]2)cc1 [Compound 1212121]
pEC50: 4.72

Cn1c(SCC(=O)Nc2ccc3c(c2)oc2ccccc23)nnc1-c1ccccc1 [Compound 2193118]
pEC50: 4.42

CC(C)CN(C(=O)COC(=O)c1cc2c(s1)CCC2)C1CCS(=O)(=O)C1 (stereo not drawn) [Compound 2998734]
pEC50: 5.10

C=CCN(CC=C)S(=O)(=O)c1ccc(C(=O)Nc2sc3c(c2C(N)=O)CCCCC3)cc1 [Compound 3395368]
pEC50: 5.06

Cc1oc(-c2ccc(F)cc2)cc1-c1nn2c(-c3ccoc3C)nnc2s1 [Compound 2145571]
pEC50: 4.92

CCOC(=O)c1[nH]c2ccc(Cl)cc2c1NC(=O)/C=C/c1ccc2c(c1)OCO2 [Compound 1973614]
pEC50: 4.36

O=C(NCc1ccco1)c1c2c(nc3ccccc13)CCC2 [Compound 862194]
pEC50: 4.82

O=C(NNC(=O)c1cccc(S(=O)(=O)N2CCN(c3ccccc3)CC2)c1)c1ccc(Cl)cc1 [Compound 4412067]
pEC50: 4.94

Cc1cc(C=C2C(=O)CCCC2=O)c(C)n1-c1ccccc1 [Compound 2313216]
pEC50: 4.55

COc1ccc(OC)c(NS(=O)(=O)Cc2ccccc2)c1 [Compound 743624]
pEC50: 4.80

COc1ccc(/C=c2\sc3nc(-c4ccccc4OC)nn3c2=O)c(OC)c1 [Compound 1827856]
pEC50: 5.15

O=C1NN(c2ccc(Cl)c(Cl)c2)C(=O)/C1=C/c1cccc(OC(=O)c2cccs2)c1 [Compound 1016780]
pEC50: 5.11

CCC(=O)Nc1ccc(C(=O)CSc2nc3ccc(C)cc3[nH]2)cc1 [Compound 2549650]
pEC50: 4.99

COc1ccc(C(=O)Nc2ccc(N3CCCC3)cc2)cc1 [Compound 960708]
pEC50: 3.99

Cc1csc(NC(=O)c2cc(-c3ccco3)nc3ccccc23)n1 [Compound 2366866]
pEC50: 5.07

Cc1ccc(/C=C2\SC(=S)N(CC(=O)Nc3ncc(Cc4ccccc4Cl)s3)C2=O)cc1 [Compound 1871747]
pEC50: 4.81

CN(CCC#N)C(=O)COC(=O)c1c2c(nc3ccccc13)/C(=C/c1ccco1)CC2 [Compound 5801934]
pEC50: 5.11

COc1cccc2sc(Nc3nc(-c4cc5ccccc5oc4=O)cs3)nc12 [Compound 7109922]
pEC50: 5.06

NC(=S)N/N=C/c1coc2cc(Cl)ccc2c1=O [Compound 6879466]
pEC50: 3.77

O=C(N/N=C\C=C\c1ccco1)c1cc(-c2ccc3ccccc3c2)[nH]n1 [Compound 6030986]
pEC50: 5.09

Cc1nc2c(c(=O)n1CCC1=CCCCC1)c1nc3ccccc3nc1n2/N=C/c1ccco1 [Compound 6880170]
pEC50: 4.95

O=C(CNS(=O)(=O)c1cccc(Cl)c1)Nc1ccc(-c2nc3ccccc3s2)cc1 [Compound 984329]
pEC50: 5.03
